The results in this text go back to paper PMC4501319, “Discovery of Selective Small-Molecule Activators of a Bacterial Glycoside Hydrolase” (Angewandte Chemie (International Ed. in English), 2014).

The structures appear in SMILES notation.

The target in assay [1] is T1, BtGH84 (Bacteroides thetaiotaomicron, UniProt Q89ZI2).
T1 construct: made in house
The assay can be described thus: 4MU-GlcNAc cleavage assay (fluorescent kinetic enzyme activity assay). Particulars: in the presence of 4mM activator 2 versus absence. The class given is biochemical. Here is the method: (§1) AC50 measurements of fragment activators were performed using a fluorescent kinetic assay. Assays were carried out in a 96 well plate (Black Nunc F96 MicroWell Plates) at 25°C in a total volume of 100 μl per well, buffer (50 mM MES pH 6.5, 200 mM NaCl, 0.01% Tween-20, 1% DMSO) with 500 μM 4-methylumbelliferyl-β-D-GlcNAc (4MU-GlcNAc), as substrate and 50 nM BtGH84. Reactions were initiated by addition of 10 μl of substrate, to a final concentration of 500 μM, followed by 5 s of shaking. Fluorescent 4-methylumbelliferyl release was recorded continuously at 355 nm excitation and 460 nm emission for 20 s using a BMG PolarStar Optima plate reader. Rates were calculated using Sigmaplot as the slope of the curve of the collected data. Corrections were made to the detected gradients to adjust for the inner filter effect of 4MU-GlcNAc and convert the gradients into units of μmol min-1 according to a standard curve of 4MU. […]
Kinetic experiments using 4MU-GlcNAc were carried out in an analogous manner except that reactions were initiated by a 10 μl injection of BtGH84, to a final concentration of 50 nM, in a well containing the substrate at the desired concentration. Values quoted throughout are mean and standard deviation of three independent […]
Apparent KM and Vmax values were calculated from a Michalis-Menten curve fit to 8-10 point substrate titrations at a constant concentration of the activator. The covariation experiments used the same range of substrate concentrations across an activator concentration range of 50 µM to 2 mM. The data obtained from these experiments was fit to the nonessential activator equation: […]
Here, [S] is the concentration of the […], [A] the concentration of the activator, α modifies KM, β modifies Vmax and KA is the half-max concentration of the activator. […]

Assay [2] has as its target T1, BtGH84. Description: Isothermal titration calorimetry (ITC). The assay is classed as binding. Conditions: 25°C. Here is the method:
as §1, with “4MU. The initial slopes were fitted to four-parameter sigmoidal dose response curves using SigmaPlot and the AC50 values extracted.” for “4MU.”
Apparent KM and Vmax values were calculated from a Michalis-Menten curve fit to 8-10 point substrate titrations at a constant concentration of the activator. […]
(Isothermal titration calorimetry measures the heat released or taken up as one component is titrated into another.)

The target of assay [3] is T1, BtGH84. Description: Differential scanning fluorimetry (DSF). The assay is classed as binding. Particulars: melting temperature of BtGH84; PUGNAc 200 μM. Here is the method: constant (Ka) were obtained from this fitting, and were used to calculate the Gibbs free energy (ΔG) and […]
Crystallisation and structure determination
BtGH84 crystals were grown using the sitting-drop vapour diffusion method. 1 μl of 12 mg/ml BtGH84 was mixed with 1 μl of reservoir solution (0.1 M imidazole pH 8.0, 10% PEG8000 (w/v), 3% trimethylamine N-oxide dehydrate, 12% ethylene glycol) and the crystals were allowed to grow at room temperature for at least 2 days. Crystal soaking was performed by gradually adding well solution containing 10 mM PUGNac and 50 mM activator 2, and 10% DMSO. Crystals were picked up with a nylon fibre loop (Hampton Research) and plunged into liquid nitrogen. Data were collected at Diamond beamline I04 using a Pilatus 6M-F detector (Dectris) at 100 K. An oscillation range of 0.1° degree was chosen and 180° were collected. Data were indexed, integrated and scaled using XDS.[5] Indexing was chosen to be consistent with previous collected data using Pointless[6] and a direct refinement of the model against the data was carried out. […] The quality of the final model was evaluated using the MolProbity-Server.[10] […]
DSF experiments were performed in 96-well polypropylene PCR plates (Agilent 401334) with a final well volume of 25 µl. […] Data was analysed with a combination of the Agilent MxPro software, MTSA,[11] and the DSF analysis spreadsheet in Excel.[12] […]
For orientation: In DSF a fluorescence change marks the thermal transition of the protein.

T1 sequence (Q89ZI2 22-737, change not shown): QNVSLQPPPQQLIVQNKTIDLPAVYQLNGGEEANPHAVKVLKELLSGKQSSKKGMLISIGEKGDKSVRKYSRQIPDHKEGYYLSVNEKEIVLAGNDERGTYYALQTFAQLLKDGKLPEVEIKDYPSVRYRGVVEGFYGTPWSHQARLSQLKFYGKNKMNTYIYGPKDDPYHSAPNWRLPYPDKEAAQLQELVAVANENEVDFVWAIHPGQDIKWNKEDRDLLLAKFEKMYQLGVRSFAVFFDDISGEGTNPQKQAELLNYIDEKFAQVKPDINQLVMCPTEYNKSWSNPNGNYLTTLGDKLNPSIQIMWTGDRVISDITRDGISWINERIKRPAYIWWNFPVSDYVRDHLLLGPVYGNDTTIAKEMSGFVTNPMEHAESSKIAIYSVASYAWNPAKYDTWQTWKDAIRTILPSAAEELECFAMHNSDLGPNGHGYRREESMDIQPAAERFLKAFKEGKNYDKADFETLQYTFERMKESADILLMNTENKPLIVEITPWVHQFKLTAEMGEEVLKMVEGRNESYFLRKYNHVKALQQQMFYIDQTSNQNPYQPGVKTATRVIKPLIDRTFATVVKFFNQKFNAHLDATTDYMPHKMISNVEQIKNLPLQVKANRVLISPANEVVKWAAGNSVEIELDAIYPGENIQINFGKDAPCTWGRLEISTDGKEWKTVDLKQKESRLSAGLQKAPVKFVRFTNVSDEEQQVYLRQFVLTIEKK

In the case of `CC(=O)N[C@H]1/C(=N/OC(=O)Nc2ccccc2)O[C@H](CO)[C@@H](O)[C@@H]1O` [PUGNAc, O-(2-Acetamido-2-deoxy-D-glucopyranosylidene) amino-Z-N-phenylcarbamate], the “IC50 (change)” value on BtGH84 [1] is recorded as “reduced”. Further, the equilibrium dissociation constant (Kd) at BtGH84 [2] (in the absence of 2) was 3.9 ± 0.12 µM; at BtGH84 [2] (in the presence of 2 (10 mM)) it was 1.1 ± 0.24 µM. The “increase of Tm” value on BtGH84 [3] stood at 3 °C.

As a reminder, the Kd is a measure of binding affinity in units of concentration.
